ChEMBL document CHEMBL1201862, “PubChem BioAssay data set” (2004)
Activity calls are given as the source filed them. For most assays here, no stated cut-off is given here; in the data, actives have a measured IC50 and inactives only a lower limit.

What was measured:
[1] = system: P388/ADR; assay: cells; assay type: functional; details: Mus musculus
[2] = system: SN12K1; assay: cells; assay type: functional; details: Homo sapiens
[3] = system: P388; assay: cells; assay type: functional; details: Mus musculus
[4] = target: T1, Histone-lysine N-methyltransferase NSD2 (Homo sapiens, UniProt O96028); assay type: biochemical
T1 sequence (O96028 whole entry): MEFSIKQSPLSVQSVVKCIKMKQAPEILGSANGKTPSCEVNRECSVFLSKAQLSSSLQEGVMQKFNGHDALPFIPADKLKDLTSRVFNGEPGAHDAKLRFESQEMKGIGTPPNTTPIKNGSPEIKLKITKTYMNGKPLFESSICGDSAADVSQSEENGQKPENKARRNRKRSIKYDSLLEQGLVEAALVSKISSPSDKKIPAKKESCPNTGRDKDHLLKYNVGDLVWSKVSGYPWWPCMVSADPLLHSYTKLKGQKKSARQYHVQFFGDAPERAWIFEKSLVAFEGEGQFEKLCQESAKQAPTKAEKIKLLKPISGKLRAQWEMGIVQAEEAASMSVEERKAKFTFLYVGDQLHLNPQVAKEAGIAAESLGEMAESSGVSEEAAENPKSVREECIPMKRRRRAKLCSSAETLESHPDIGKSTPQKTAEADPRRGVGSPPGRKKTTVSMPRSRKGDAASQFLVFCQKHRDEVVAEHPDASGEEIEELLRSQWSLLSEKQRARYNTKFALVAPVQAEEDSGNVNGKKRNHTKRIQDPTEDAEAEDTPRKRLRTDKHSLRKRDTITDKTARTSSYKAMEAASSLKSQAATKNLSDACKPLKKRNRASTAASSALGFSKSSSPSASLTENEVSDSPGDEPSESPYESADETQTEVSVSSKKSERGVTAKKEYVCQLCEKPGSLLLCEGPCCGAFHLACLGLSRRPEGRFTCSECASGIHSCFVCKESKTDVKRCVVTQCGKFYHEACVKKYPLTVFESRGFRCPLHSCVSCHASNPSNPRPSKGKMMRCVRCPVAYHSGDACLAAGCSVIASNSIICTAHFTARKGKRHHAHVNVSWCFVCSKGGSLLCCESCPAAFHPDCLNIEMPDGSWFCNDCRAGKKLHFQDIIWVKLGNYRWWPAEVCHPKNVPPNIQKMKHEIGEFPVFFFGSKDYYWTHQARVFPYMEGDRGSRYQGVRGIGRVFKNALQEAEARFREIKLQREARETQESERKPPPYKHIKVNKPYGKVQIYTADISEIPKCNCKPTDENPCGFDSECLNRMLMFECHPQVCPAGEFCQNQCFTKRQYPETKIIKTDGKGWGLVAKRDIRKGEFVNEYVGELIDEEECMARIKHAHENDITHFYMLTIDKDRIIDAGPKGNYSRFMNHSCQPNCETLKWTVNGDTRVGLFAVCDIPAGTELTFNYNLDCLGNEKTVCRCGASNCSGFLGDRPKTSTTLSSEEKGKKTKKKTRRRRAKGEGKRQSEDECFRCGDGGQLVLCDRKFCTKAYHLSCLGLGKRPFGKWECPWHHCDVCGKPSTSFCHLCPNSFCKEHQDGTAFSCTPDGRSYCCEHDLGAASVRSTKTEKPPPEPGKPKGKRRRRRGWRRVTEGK

[5] = target: T2, Sentrin-specific protease 8 (Homo sapiens, UniProt Q96LD8); assay: inhibition of human SENP8 cleavage activity – biochemical, luminescence, SAR follow-up (AID 504501); assay type: functional
T2 sequence (Q96LD8 whole entry): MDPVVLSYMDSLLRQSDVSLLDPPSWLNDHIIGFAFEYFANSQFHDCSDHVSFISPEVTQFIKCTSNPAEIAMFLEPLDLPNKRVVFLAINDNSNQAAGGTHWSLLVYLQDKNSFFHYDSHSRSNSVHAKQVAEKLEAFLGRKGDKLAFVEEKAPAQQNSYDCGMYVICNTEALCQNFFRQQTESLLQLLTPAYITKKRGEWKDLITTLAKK

[6] = target: T3, Caspase-3 (Homo sapiens, UniProt P42574); assay: SAR Analysis of small molecule inhibitors of Sentrin-specific proteases (SENPs) using a Caspase-3 Selectivity assay. [Related pubchem assays (depositor defined):AID2540, AID2599, AID434973, AID489001]; assay type: functional
T3 sequence (P42574 whole entry): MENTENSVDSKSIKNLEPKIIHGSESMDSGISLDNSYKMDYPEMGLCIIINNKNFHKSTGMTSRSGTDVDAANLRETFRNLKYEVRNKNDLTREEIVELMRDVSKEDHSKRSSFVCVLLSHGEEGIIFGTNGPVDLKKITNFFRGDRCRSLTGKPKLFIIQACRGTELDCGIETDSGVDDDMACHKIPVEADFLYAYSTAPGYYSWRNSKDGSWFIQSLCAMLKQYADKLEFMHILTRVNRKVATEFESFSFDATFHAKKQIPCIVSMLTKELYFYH

[7] = target: T4, Sentrin-specific protease 6 (Homo sapiens, UniProt Q9GZR1); assay: SAR Analysis of small molecule inhibitors of Sentrin-specific protease 6 (SENP6) using a Luminescent assay. [Related pubchem assays (depositor defined):AID2582, AID2599]; assay type: functional
T4 sequence (Q9GZR1 whole entry): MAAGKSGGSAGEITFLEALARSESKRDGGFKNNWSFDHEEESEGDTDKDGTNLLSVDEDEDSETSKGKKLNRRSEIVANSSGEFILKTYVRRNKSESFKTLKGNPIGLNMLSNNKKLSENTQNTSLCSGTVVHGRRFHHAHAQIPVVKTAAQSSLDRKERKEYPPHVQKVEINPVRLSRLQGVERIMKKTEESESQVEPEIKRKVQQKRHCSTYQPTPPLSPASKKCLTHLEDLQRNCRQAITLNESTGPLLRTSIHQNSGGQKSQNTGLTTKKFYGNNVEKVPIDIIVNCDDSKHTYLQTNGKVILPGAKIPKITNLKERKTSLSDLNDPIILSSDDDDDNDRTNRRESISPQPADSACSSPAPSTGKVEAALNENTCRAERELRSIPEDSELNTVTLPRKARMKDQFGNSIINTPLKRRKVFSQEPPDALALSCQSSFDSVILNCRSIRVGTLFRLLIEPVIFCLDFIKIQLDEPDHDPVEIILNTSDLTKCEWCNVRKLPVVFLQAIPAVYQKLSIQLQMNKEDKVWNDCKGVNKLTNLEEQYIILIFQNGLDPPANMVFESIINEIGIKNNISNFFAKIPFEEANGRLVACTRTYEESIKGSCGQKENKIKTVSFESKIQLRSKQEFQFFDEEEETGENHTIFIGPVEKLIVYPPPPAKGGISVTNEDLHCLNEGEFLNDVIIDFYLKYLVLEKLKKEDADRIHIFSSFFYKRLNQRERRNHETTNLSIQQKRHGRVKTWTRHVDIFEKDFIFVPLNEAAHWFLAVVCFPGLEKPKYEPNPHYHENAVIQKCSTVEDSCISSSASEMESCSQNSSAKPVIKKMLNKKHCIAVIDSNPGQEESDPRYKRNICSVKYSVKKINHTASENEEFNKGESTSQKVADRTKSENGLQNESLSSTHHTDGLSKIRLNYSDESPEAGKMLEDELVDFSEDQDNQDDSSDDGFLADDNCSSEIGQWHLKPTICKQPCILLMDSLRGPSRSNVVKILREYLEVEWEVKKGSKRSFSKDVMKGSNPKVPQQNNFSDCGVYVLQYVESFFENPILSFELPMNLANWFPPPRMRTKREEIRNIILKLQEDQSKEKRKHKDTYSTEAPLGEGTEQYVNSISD

[8] = target: T5, Sentrin-specific protease 7 (Homo sapiens, UniProt Q9BQF6); assay: inhibition of human SENP7 cleavage activity – biochemical, luminescence, SAR follow-up (AID 504497); assay type: functional
T5 sequence (Q9BQF6 whole entry): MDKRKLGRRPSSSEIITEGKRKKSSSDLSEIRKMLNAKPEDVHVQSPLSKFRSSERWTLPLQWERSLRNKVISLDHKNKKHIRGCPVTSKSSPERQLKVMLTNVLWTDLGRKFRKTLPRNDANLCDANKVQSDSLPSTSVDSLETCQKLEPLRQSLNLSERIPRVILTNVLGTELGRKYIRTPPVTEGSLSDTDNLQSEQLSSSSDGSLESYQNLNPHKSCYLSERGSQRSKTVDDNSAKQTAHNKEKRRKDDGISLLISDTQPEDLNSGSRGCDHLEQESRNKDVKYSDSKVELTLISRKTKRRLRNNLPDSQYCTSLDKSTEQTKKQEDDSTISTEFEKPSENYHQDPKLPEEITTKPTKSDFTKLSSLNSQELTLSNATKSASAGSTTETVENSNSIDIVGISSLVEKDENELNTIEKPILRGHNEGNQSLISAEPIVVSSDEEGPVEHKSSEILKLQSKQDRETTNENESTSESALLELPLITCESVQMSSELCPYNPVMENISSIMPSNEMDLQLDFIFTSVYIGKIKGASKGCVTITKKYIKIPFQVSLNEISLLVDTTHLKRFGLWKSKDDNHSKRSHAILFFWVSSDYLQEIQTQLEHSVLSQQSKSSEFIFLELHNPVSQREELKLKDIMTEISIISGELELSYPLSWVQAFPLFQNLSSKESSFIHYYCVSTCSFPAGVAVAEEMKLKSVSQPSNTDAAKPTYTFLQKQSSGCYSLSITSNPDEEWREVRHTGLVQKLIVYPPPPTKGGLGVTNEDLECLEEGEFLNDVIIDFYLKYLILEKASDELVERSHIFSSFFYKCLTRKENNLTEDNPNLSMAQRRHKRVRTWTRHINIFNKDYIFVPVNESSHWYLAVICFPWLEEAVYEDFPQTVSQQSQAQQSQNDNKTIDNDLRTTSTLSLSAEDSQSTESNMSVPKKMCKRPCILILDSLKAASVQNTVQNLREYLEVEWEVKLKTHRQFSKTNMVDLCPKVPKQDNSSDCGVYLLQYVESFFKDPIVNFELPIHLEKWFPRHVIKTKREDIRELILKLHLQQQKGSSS

[9] = target: T3, Caspase-3; assay type: functional
[10] = target: T5, Sentrin-specific protease 7; assay type: functional
[11] = target: T4, Sentrin-specific protease 6; assay type: functional
[12] = target: T2, Sentrin-specific protease 8; assay type: functional
[13] = Luminescence Cell-Based Dose Retest to Confirm Inhibitors of Cancer Stem Cells. [Related pubchem assays (depositor defined):AID2717, AID2721]; assay type: functional; details: Homo sapiens

## CCOC(=O)C(C)N1C(=O)c2ccccc2S1(=O)=O (configuration not stated)
[1]
  GI50: > 100 µM (inactive)
[2]
  GI50: > 100 µM (inactive)
[3]
  GI50: > 100 µM (inactive)

## CCCCCCCC/C=C\CCCCCCCCCCCC(=O)O [ERUCIC ACID]
[1]
  GI50: 14.4 µM (inactive)
[2]
  GI50: 9.62 µM (inactive)
[3]
  GI50: 11.2 µM (inactive)

## Nc1nc(N)c2nc(CNc3ccc(C(=O)NC(CCCNC(=O)c4ccccc4C(=O)O)C(=O)O)cc3)cnc2n1 (configuration not stated)
[1]
  GI50: < 0.01 µM (active)
[2]
  GI50: < 0.01 µM (active)
[3]
  GI50: < 0.01 µM (active)

## CCCCCSc1cc(OC)c(CCNC)cc1OC
[4]
  AC50: 17.5 µM (active)

## O=C(Nc1nc2ccc(Cl)cc2s1)c1ccc(C(F)(F)F)cc1
[5]
  IC50: > 99 µM (inactive)
[6]
  IC50: > 99 µM (inactive)
[7]
  IC50: > 99 µM (inactive)
[8]
  IC50: > 99 µM (inactive)

## O=C(Nc1ccc(F)c(F)c1)c1ccc2c(c1)OCO2
[5]
  IC50: 8.53 µM (active)
[6]
  IC50: 3.11 µM (active)
[7]
  IC50: 8.66 µM (active)
[8]
  IC50: 2.85 µM (active)

## Cc1nc(Nc2ccc(C(=O)O)cc2)sc1-c1ccccc1
[9]
  IC50: 10.9 µM (active)
[10]
  IC50: 0.797 µM (active)
[11]
  IC50: 0.787 µM (active)
[12]
  IC50: 1.88 µM (active)

## C[C@@]1(CO)[C@H](O)CC[C@@]2(C)[C@H]1CC[C@H]1C[C@@H]3C[C@@]12CC[C@@]3(O)COC(=O)CN
[1]
  GI50: 0.481 µM (active)
[3]
  GI50: 1.11 µM (active)

## CC(=O)Oc1ccccc1/C=C(\C)c1noc(-c2ccccc2O)n1
[5]
  IC50: > 99 µM (inactive)
[6]
  IC50: > 99 µM (inactive)
[7]
  IC50: > 99 µM (inactive)
[8]
  IC50: > 99 µM (inactive)

## Cc1c2cnccc2c(C)c2c1c1ccccc1n2CCCCCCCl
[1]
  GI50: 22.8 µM (inactive)
[2]
  GI50: 30 µM (inactive)
[3]
  GI50: 1.77 µM (inactive)

## O=C1/C(=C/c2cccc(F)c2)Oc2cc(O)ccc21
[9]
  IC50: 18.2 µM (active)
[10]
  IC50: 6.09 µM (active)
[11]
  IC50: 15.9 µM (active)
[12]
  IC50: 2.29 µM (active)
[5]
  IC50: 15.8 µM (active)
[6]
  IC50: 9.25 µM (active)
[7]
  IC50: 12 µM (active)
[8]
  IC50: 4.4 µM (active)

## N#Cc1c(NC(=O)c2ccc(Cn3cc(Br)cn3)o2)sc2c1CCCCC2
[13]
  AC50: 2.97 µM (active)
[5]
  IC50: > 99 µM (inactive)
[6]
  IC50: > 99 µM (inactive)
[7]
  IC50: > 99 µM (inactive)
[8]
  IC50: > 99 µM (inactive)

## O=C(O)/C=C/c1c[nH]c(=O)[nH]c1=O
[1]
  GI50: > 500 µM (inactive)
[2]
  GI50: > 500 µM (inactive)
[3]
  GI50: > 500 µM (inactive)

## COc1cc(OC)cc(C(=O)Nc2ccc(Nc3ccccc3)cc2)c1
[13]
  AC50: 4.09 µM (active)
[9]
  IC50: 30.3 µM (active)
[10]
  IC50: 5.27 µM (active)
[11]
  IC50: 17.8 µM (active)
[12]
  IC50: 22.5 µM (active)
